Results from patent publication US20250339434A1, “TREATING NEUROLOGIC DISEASES” (priority 2024, published 2025).
“And” between values parts separate entries of the source, which are not always exact repeats. Equal values may be shown once. “Also recorded” adds a separate entry of the source. Marks after values point to notes of the source that are not given here.

Columns and labels:
[1] = system: individuals with ASD; settings: cited from earlier work
[2] = system: patients with ASD; assay: ABC scores in patients with ASD tested for FRAAs and sFBPs: effect of leucovorin and concurrent treatments; assay type: in vivo, human; settings: for Effect on ABC Hyperactivity: concurrent treatments
Description: (§1) In other tests, many patients with ASD were tested for FRAAs and sFBPs to guide clinical management by identifying the clinical characteristics associated with these biomarkers and to determine whether the biomarkers could predict treatment response.
(§2) The following two tables indicate some treatments and a statistically significant effect of concurrent treatments. β indicates an effectiveness on a certain outcome measure. In Table 2 and 3, a negative value for beta indicates a positive result.

[3] = system: patients with ASD; assay: SRS scores in patients with ASD tested for FRAAs and sFBPs: effect of leucovorin and concurrent treatments; assay type: in vivo, human; settings: for Association of concurrent treatment with SRS scores: concurrent treatments
Description: as §1
This is due to two opposing effects. It appears that those with higher binding FRAAs that were not treated with leucovorin had more severe ASD symptoms than those with low binding FRAA titers. In contrast, those with higher FRAA titers who were treated with leucovorin appear to have less severe ASD symptoms than those that were treated and had lower binding FRAA titers. […] Those patients with some of the highest binding FRAA titers can have, on average, a eight-to-sixteen point favorable response on SRS subscales, an amount that can move them into more favorable severity categories.
FIGS. 8A-E are a collection of five charts illustrating results of factoring in a titer of binding autoantibody with the folate treatment when applied to several patients, where the results are shown on a Social Responsiveness Scale.
as §2

[4] = system: sFBP positive human subjects (patients) with ASD; assay: Social Responsiveness Scale (SRS) scores before and after leucovorin in sFBP positive patients; assay type: in vivo
Description: Turning now to FIGS. 2A-F, six figures indicate results of treatments when using the process (100) of FIG. 1. In sFBP positive human subjects (patients) started on the standard dose of leucovorin (25 mg twice a day) but in 6 of 12 (50%), the dose of leucovorin was increased to 50 mg twice a day in order to obtain an effective response as judged by the ongoing clinical evaluation. The number of days treated with leucovorin ranged from 92 to 1022 days with an average (SD) number of 584 (333) days of treatment. The graphs of FIGS. 2A-F illustrate the patients' responses using a Social Responsiveness Scale (SRS, which is known in the field, so will not be explained in detail herein). The difference in SRS scores was compared before and after the start of leucovorin treatment. The Total score decreased by 7.4 (1.4) t-score points with leucovorin treatment [F(1,44.6)=28.03, p<0.001, Cohen's d′=1.4]. The Awareness subscale decreased by 8.0 (1.9) t-score points with leucovorin treatment [F(1,45.9)=18.01, p<0.001, Cohen's d′=1.1]. The Cognition subscale decreased by 8.5 (1.8) t-score points with leucovorin treatment [F(1,45.4)=21.64, p<0.001, Cohen's d′=1.2]. The Communication subscale decreased by 8.9 (1.6) t-score points with leucovorin treatment [F(1,44.6)=31.22, p<0.001, Cohen's d′=1.4]. The Motivation subscale decreased by 6.9 (2.1) t-score points with leucovorin treatment [F(1,44.8)=10.91, p<0.01, Cohen's d′=0.9]. The Mannerisms subscale decreased by 4.3 (1.9) t-score points with leucovorin treatment [F(1,45.0)=[…], p=0.03, Cohen's d′=0.6]. To determine an estimate of the timing of the effect of leucovorin treatment, linear regression models were used to determine the change in SRS scores with each day of leucovorin treatment, as shown in FIGS. 2A-F. The Total score decreased by 0.01 (0.002) t-score points per day on leucovorin [F(1,46.6)=25.68, p<0.001]. The Awareness subscale decreased by 0.014 (0.003) t-score points per day on leucovorin [F(1,47.2)=19.74, p<0.001]. The Cognition subscale decreased by 0.013 (0.003) t-score points per day on leucovorin [F(1,47.4)=17.49, p<0.001]. The Communication subscale decreased by 0.013 (0.003) t-score points per day on leucovorin [F(1,46.2)=21.48, p<0.001]. The Motivation subscale decreased by 0.01 (0.004) t-score points per day on leucovorin [F(1,46.1)=8.27, p<0.01]. The Mannerisms subscale decreased by 0.008 (0.003) t-score points per day on leucovorin [F(1,46.2)=6.34, p=0.02].

[5] = system: individuals with ASD; assay: Safety and tolerability in individuals with ASD; assay type: in vivo, human; settings: vulnerable population (ASD)
[6] = cited from earlier work
[7] = system: sFBP positive human subjects (patients) with ASD; assay: Aberrant Behavior Checklist (ABC) scores before and after leucovorin in sFBP positive patients; assay type: in vivo
Description: FIGS. 3A-F includes six charts that indicate results of treatments when using the process (100) of FIG. 1 using the Aberrant Behavioral Checklist (ABC, which is known in the field, so will not be explained in detail herein). The patients are the same as the patients in FIGS. 2A-F. Note that the scores/scales are different in FIGS. 3A-F, but the patients are the same and measured over the same time period as FIGS. 2A-F. The difference in ABC scores was compared before and after the start of leucovorin treatment. The Total score decreased by 20.2 (5.9) raw points with leucovorin treatment [F(1,44.8)=11.92, p=0.001, Cohen's d′=0.9]. The Irritability subscale decreased by 5.7 (2.1) raw points with leucovorin treatment [F(1,44.8)=7.56, p<0.01, Cohen's d′=0.6]. […] The Stereotypy subscale decreased by 2.2 (1.0) raw points with leucovorin treatment [F(1,46.4)=4.56, p<0.05, Cohen's d′=0.5]. The Hyperactivity subscale decreased by 6.8 (1.6) raw points with leucovorin treatment [F(1,43.8)=18.34, p<0.001, Cohen's d′=1.1]. […] To get an estimate of the timing of the effect of leucovorin treatment, linear regression models were used to determine the change in ABC scores with each day of leucovorin treatment, as shown in FIGS. 3A-F. The Total score decreased by 0.04 (0.01) raw points per day on leucovorin [F(1,46.3)=12.67, p=0.001]. The Irritability subscale decreased by 0.008 (0.004) raw points per day on leucovorin [F(1,46.5)=5.33, p<0.05]. The Social-Withdrawal subscale decreased by 0.01 (0.003) raw points per day on leucovorin [F(1,44.9)=13.85, p<0.001]. The Stereotypy subscale decreased by 0.004 (0.002) raw points per day on leucovorin [F(1,48.1)=6.17, p<0.05]. The Hyperactivity subscale decreased by 0.01 (0.003) raw points per day on leucovorin [F(1,44.6)=20.56, p<0.001].

[8] = effect of concurrent treatment, negative beta = positive result
[9] = effect size, before vs after leucovorin
[10] = sFBP positive patients, before vs after start of leucovorin

## C[N+](C)(C)CC(O)CC(=O)[O-] (centres unmarked) [Carnitine]
[1]
  Effect on core ASD symptoms in two DBPC studies: improve core ASD symptoms
[2]
  Effect on ABC Hyperactivity: improve ABC Hyperactivity
[2]; listed as carnitine
  Effect on ABC Hyperactivity: better score on ABC Hyperactivity
[3]; [8]
  β, SRS Motivation: −2.3 (1.0)*

## Nc1nc2c(c(=O)[nH]1)N(C=O)C(CNc1ccc(C(=O)N[C@@H](CCC(=O)O)C(=O)O)cc1)CN2 (mixture of isomers) [leucovorin, folinic acid]
[4]; [9]
  Cohen's d′, SRS Awareness subscale: 1.1
  Cohen's d′, SRS Cognition subscale: 1.2
  Cohen's d′, SRS Communication subscale: 1.4
  Cohen's d′, SRS Mannerisms subscale: 0.6
  Cohen's d′, SRS Motivation subscale: 0.9
  Cohen's d′, SRS Total score: 1.4
[4]; individuals positive for sFBPs
  Duration of treatment necessary for the 7-point improvement in the SRS: two years
[4]; linear regression model
  SRS Awareness subscale decrease per day on leucovorin: 0.014 (0.003) t-score points per day
  SRS Cognition subscale decrease per day on leucovorin: 0.013 (0.003) t-score points per day
  SRS Communication subscale decrease per day on leucovorin: 0.013 (0.003) t-score points per day
  SRS Mannerisms subscale decrease per day on leucovorin: 0.008 (0.003) t-score points per day
  SRS Motivation subscale decrease per day on leucovorin: 0.01 (0.004) t-score points per day
  SRS Total score decrease per day on leucovorin: 0.01 (0.002) t-score points per day
[4]; sFBP positive patients
  SRS score decrease with leucovorin (summary): about 7 points
[4]; sFBP positive patients (12), before vs after start of leucovorin 25 or 50 mg twice a day, 92 to 1022 days, value (spread)
  SRS Total score decrease with leucovorin treatment: 7.4 (1.4) t-score points
[4]; [10]
  SRS Awareness subscale decrease with leucovorin treatment: 8.0 (1.9) t-score points
  SRS Cognition subscale decrease with leucovorin treatment: 8.5 (1.8) t-score points
  SRS Communication subscale decrease with leucovorin treatment: 8.9 (1.6) t-score points
  SRS Mannerisms subscale decrease with leucovorin treatment: 4.3 (1.9) t-score points
  SRS Motivation subscale decrease with leucovorin treatment: 6.9 (2.1) t-score points
[2]
  Effect on ABC Irritability: only improved Irritability; also recorded: overall improving irritability
[5]
  Safety and tolerability: extremely safe and well-tolerated
[6]
  Absorption following oral administration: rapidly absorbed
[3]; dependence on binding FRAA titer
  SRS t-scores / ASD symptoms as binding FRAA titers increase, with leucovorin treatment: less severe ASD symptoms when treated with leucovorin; also recorded: better (lower scores)
[3]; on average, highest binding FRAA titers
  Favorable response on SRS subscales in patients with some of the highest binding FRAA titers: eight-to-sixteen
[3]; patients with ASD
  Effect on core ASD symptoms: improves core ASD symptoms
[7]; [9]
  Cohen's d′, ABC Hyperactivity subscale: 1.1
  Cohen's d′, ABC Irritability subscale: 0.6
  Cohen's d′, ABC Social Withdrawal subscale: 0.9
  Cohen's d′, ABC Stereotypy subscale: 0.5
  Cohen's d′, ABC Total score: 0.9
[7]; individuals positive for sFBPs
  Duration of treatment required for the 5.7 improvement in irritability on the ABC: two years
[7]; linear regression model
  ABC Hyperactivity subscale decrease per day on leucovorin: 0.01 (0.003) raw points per day
  ABC Inappropriate Speech subscale change per day on leucovorin: did not change significantly
  ABC Irritability subscale decrease per day on leucovorin: 0.008 (0.004) raw points per day
  ABC Social-Withdrawal subscale decrease per day on leucovorin: 0.01 (0.003) raw points per day
  ABC Stereotypy subscale decrease per day on leucovorin: 0.004 (0.002) raw points per day
  ABC Total score decrease per day on leucovorin: 0.04 (0.01) raw points per day
[7]; [10]
  ABC Hyperactivity subscale decrease with leucovorin treatment: 6.8 (1.6) raw points
  ABC Inappropriate Speech subscale change with leucovorin treatment: did not change significantly
  ABC Irritability subscale decrease with leucovorin treatment: 5.7 (2.1) raw points and 5.7 raw points
  ABC Social Withdrawal subscale decrease with leucovorin treatment: 5.8 raw points
  ABC Stereotypy subscale decrease with leucovorin treatment: 2.2 (1.0) raw points
  ABC Total score decrease with leucovorin treatment: 20.2 (5.9) raw points

## C/C1=C2/[N-][C@H]([C@H](CC(N)=O)[C@@]2(C)CCC(=O)NC[C@@H](C)OP(=O)([O-])O[C@H]2[C@@H](O)[C@@H](n3cnc4cc(C)c(C)cc43)O[C@@H]2CO)[C@]2(C)N=C(/C(C)=C3N=C(/C=C4N=C1[C@@H](CCC(N)=O)C\4(C)C)[C@@H](CCC(N)=O)[C@]\3(C)CC(N)=O)[C@@H](CCC(N)=O)[C@]2(C)CC(N)=O.[CH3-].[Co+3] [mB12 SQ, Methyl-cobalamin]
[3]; [8]
  β, SRS Cognition: −4.3 (1.3)***
  β, SRS Motivation: −3.2 (1.3)*
[3]; effect of concurrent treatment, negative beta = positive result, value (spread)
  β, SRS Total: −2.8 (1.1)**
[3]; patients with ASD
  Association of concurrent treatment with SRS scores: improve the SRS Total score, as well as all subscales except SRS Awareness
[3]; patients with ASD, listed as mB12 Subcutaneous
  Association of concurrent treatment with SRS scores: better SRS scores on a few subscales
